{
  "source": "paper PMC13163009",
  "about": "“Pyrimethamine Restores KEAP1-Mediated Degradation of Select NRF2 Mutants in Esophageal Squamous Cell Carcinoma” (Cancers, 2026)",
  "key": {"[1]": {"target": "T1, KEAP1 (Kelch-like ECH-associated protein 1) (Homo sapiens, UniProt Q14145)", "T1 construct": "human recombinant KEAP1 (Gln2-Cys624)", "T1 sequence (Q14145 2-624)": "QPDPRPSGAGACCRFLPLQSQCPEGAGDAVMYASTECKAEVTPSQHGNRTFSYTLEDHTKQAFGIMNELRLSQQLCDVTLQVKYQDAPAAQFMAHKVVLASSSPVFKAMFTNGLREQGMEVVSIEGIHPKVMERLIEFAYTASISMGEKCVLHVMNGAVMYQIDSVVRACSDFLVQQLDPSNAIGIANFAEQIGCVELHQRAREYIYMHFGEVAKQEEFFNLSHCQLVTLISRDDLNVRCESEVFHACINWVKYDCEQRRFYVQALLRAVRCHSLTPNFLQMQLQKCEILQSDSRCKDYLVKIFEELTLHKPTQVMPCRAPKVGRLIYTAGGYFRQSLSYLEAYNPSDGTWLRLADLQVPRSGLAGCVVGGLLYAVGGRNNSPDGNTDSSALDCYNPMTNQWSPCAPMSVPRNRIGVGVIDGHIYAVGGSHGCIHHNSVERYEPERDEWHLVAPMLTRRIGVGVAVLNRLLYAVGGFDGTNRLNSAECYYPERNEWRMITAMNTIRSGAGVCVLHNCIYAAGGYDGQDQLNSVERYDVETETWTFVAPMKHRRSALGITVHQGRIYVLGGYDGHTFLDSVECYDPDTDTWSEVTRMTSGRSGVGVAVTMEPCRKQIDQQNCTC", "assay": "ITC with recombinant full-length KEAP1; SPR showed PYR modestly increases DLG(W24C) peptide binding to the Kelch domain"}, "[2]": {"target": "T2, Kelch fragment (Ala321-Glu611 of human KEAP1 protein) (human, UniProt Q14145 321-611, biotinylated (site not stated))", "T2 construct": "Kelch-like ECH-associated protein 1 (KEAP1), human, Kelch fragment Ala321-Glu611; printed MW 34,038.03 Da; The printed mass (34,038.03 Da) looks larger than residues 321-611 alone, so extra residues or a tag for biotinylation may be present; also called Kelch domain; Kelch domain fragment of KEAP1; source: expressed in vitro, purified, biotinylated, validated by LC-MS", "T2 sequence (Q14145 321-611)": "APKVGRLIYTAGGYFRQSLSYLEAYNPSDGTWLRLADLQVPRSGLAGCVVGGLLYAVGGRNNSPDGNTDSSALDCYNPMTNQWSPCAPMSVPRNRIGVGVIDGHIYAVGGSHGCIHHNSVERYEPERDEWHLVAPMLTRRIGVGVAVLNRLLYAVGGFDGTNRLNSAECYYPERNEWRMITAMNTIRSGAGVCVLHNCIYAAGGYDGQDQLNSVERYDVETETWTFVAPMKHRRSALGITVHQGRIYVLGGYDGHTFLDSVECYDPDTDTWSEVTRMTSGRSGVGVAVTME", "assay": "SPR; Biacore S200; biotinylated Kelch immobilised on a streptavidin chip; DLG peptides as analytes, 2-fold dilutions from 200 uM to 0.39 uM; 30 uL/min, 90 s association, 180 s dissociation; analysis at 15 °C; also run with PYR mixed into the analyte with the DLG peptides", "conditions": "both partners purified"}},
  "data": [
    {"molecule": "CCc1nc(N)nc(N)c1-c1ccc(Cl)cc1", "note": "[PYR, pyrimethamine]", "values": [
      {"measurement": "Kd", "setting": "[1]", "result": 13, "unit": "µM"}
    ]},
    {"molecule": "MDLIDILWRQDIDLGVSREVFDFS (nuclear factor erythroid 2-related factor 2 (NRF2, NFE2L2), residues 17-40 with the DLG motif; also called DLG-containing NRF2 peptide; source: synthetic peptide)", "note": "[DLG^WT peptide (NRF2 residues 17-40)]", "values": [
      {"measurement": "binding result", "setting": "[2]", "result": "binds"}
    ]}
  ]
}
